Assays:
[1] = system: TNF-α production in LPS stimulated THP-1 cells; test: Inhibition of TNF-α production in LPS stimulated THP-1 cells (ELISA); assay type: cell-based, human; conditions: mean relative secretion, basal = 0%; for TNF-α at 40 μM peptide: LPS-stimulated level without peptide = 100%; for TNF-α at 4 μM peptide / TNF-α at 10 μM peptide: stimulated = 100%
Procedure: After 6 hours of incubation at +37° C., 5% CO2 and in a humid atmosphere, the cell supernatants were collected, centrifuged and kept frozen in −20° C. until analyzed for TNF-α content by ELISA (R&D Systems, Minneapolis, Minn., USA). The results are presented as mean relative secretion (%), with stimulated TNF-α level without peptide added set to 100% and basal secretion set to 0% (Table 2).
After 6 hours of incubation, the cell supernatants were collected, centrifuged, and kept frozen in −20° C. until analyzed for TNF-α content by ELISA (R&D Systems, Minneapolis, Minn., USA). The results are presented as mean relative secretion (%), with stimulated TNF-α level without peptide added set to 100% and basal secretion set to 0% (Table 5).

S. aureus (CCUG 1800) = test: Minimal microbicidal concentration (MMC99) assay, S. aureus; assay type: cell-based; conditions: 2 hours; for MMC99 μM in 50% SWF: 50% heat inactivated simulated wound fluid
Procedure: Antimicrobial Activity was Measured as Bactericidal Effect on S. aureus Using Minimal Microbicidal Concentration, MMC99, Assay)
S. aureus (#1800; CCUG, Gothenburg, Sweden) cultured on blood-agar plates [Columbia agar (Oxoid, Basingstoke, UK) supplemented with 5% defibrinated horse blood (National Veterinary Institute (SVA), Uppsala, Sweden)] were transferred to brain heart infusion broth (3.7% BHI; Difco, BD Diagnostics, Franklin Lakes, N.J., USA) and incubated in a shaker at 250 rpm+37° C. over night. The culture was thereafter be diluted 1:10 in fresh BHI broth and incubated for additional two hours to reach log-phase growth. The bacteria were pelleted and suspended in 1% BHI medium (BHI broth diluted 100 times in ultra-pure water) to a concentration of 10^7 bacteria/ml as estimated by measuring optical density at 600 nm. Peptides were serially diluted by two-fold steps from 160 μM to 1.25 μM in 1% BHI medium. The peptides (100 μl) were thereafter incubated with bacteria (5 μl á 10^7 bact./ml) for 2 hours at +37° C. Drops (5 μl) of the suspension were placed on blood agar plates. The blood agar plates were incubated over night at +37° C. The MMC99 values, i.e. the lowest peptide concentration needed to achieve a 99% reduction of viable bacteria, were recorded (Table 3). The concentration of the bacterial suspension used in the assay was confirmed by viable counts on blood agar plates.
S. aureus (#1800; CCUG, Gothenburg, Sweden) cultured on blood-agar plates [Columbia agar (Oxoid, Basingstoke, UK) supplemented with 5% defibrinated horse blood (National Veterinary Institute (SVA), Uppsala, Sweden)] were transferred to brain heart infusion broth (3.7% BHI; Difco, BD Diagnostics, Franklin Lakes, N.J., USA) and incubated in a shaker at 250 rpm+37° C. over night. The culture was thereafter be diluted 1:10 in fresh BHI broth and incubated for additional two hours to reach log-phase growth. The bacteria were pelleted and suspended in 1% BHI medium (BHI broth diluted 100 times in ultra-pure water) to a final concentration of 10^7 bacteria/ml as estimated by measuring optical density at 600 nm.
Peptides were serially diluted by two-fold steps from 400 μM to 0.78 μM in either 1% BHI medium or in 50% heat inactivated simulated wound fluid [SWF, containing 1 part 0.1% peptone (Oxoid, Basingstoke, UK) in saline and 1 part fetal bovine serum, diluted 2 times in ultra-pure water].
The peptides (100 μl) were thereafter incubated with bacteria (5 μl a 10^7 bact./ml) for 2 hours at +37° C. Drops (5 μl) of the suspension were placed on blood agar plates. The blood agar plates were incubated over night at +37° C. The MMC99 values, i.e. the lowest peptide concentration needed to achieve a 99% reduction of viable bacteria were recorded (Table 6). The concentration of the bacterial suspension used in the assay was confirmed by viable counts on blood agar plates.
The antimicrobial effects of the peptides 232 (SEQ ID NO: 78), and 220 (SEQ ID NO:67) were analysed by MMC99 (minimal microbicidal concentration) assay against S. aureus (CCUG 1800), MRSA (CCUG 41879), P. aeruginosa (ATCC 15442), E. coli (CCUG 31246), S. pyogenes (CCUG 4207), P. acnes (CCUG 1794T), S. epidermidis (ATCC12228), K. pneumoniae (ATCC 13883), A. baumannii (ATCC 19606), and C. albicans (ATCC 64549). The peptides were purchased from Biopeptide Company (San Diego, Calif., USA) and Bachem AG (Bubendorf, Switzerland) and results are presented in Table 8A and 8B respectively.
Peptides were serially diluted in two different assay medium, 1% BHI medium (brain-heart infusion medium) or 50% heat inactivated simulated wound fluid (SWF), and thereafter incubated with the microorganisms for 2 hours. Drops of the suspension were placed on blood agar plates. The MMC99 values, i.e. the lowest peptide concentration needed to achieve a 99% reduction of viable microorganisms, were recorded. As presented in Table 8, all the peptides have the ability to kill microorganisms frequently appearing in infections. […]

[2] = screen 1, 99% reduction of viable bacteria

Sequence	TNF-α at 40 μM peptide ([1]; screen 1) [%]	MMC99 μM in 1% BHI medium (S. aureus (CCUG 1800); [2]) [µM]	TNF-α at 4 μM peptide ([1]; screen 2) [%]	TNF-α at 10 μM peptide ([1]; screen 2) [%]	TNF-α at 40 μM peptide ([1]; screen 2) [%]	MMC99 μM in 1% BHI medium (S. aureus (CCUG 1800); screen 2) [µM]	MMC99 μM in 50% SWF (S. aureus (CCUG 1800); screen 2) [µM]
QSLAEKLFQWLRNLRKVR [Peptide 117]	13	2.5	–	–	–	–	–
QSEATKRFQWLRNLRKVLWW [Peptide 212]	–	–	90.9	85.8	25.7	12.5	100
CFQWQRNMRKVR [Peptide 149]	109	13.3	–	–	–	–	–
QTEADKCFQWQRNMRKVR [Peptide 105]	87	>160	–	–	–	–	–
CFLWRRLMRKLR [Peptide 228]	–	–	106.6	95.4	53.6	12.5	50
WFQWKRRMRKVR [Peptide 129]	91	10	–	–	–	–	–
CFQWQRKMRKVR [Peptide 143]	153	20	–	–	–	–	–
TQPDATKCFQWQRNMRKVR [Peptide 103]	135	>160	–	–	–	–	–
FQWRRAIRKVR [Peptide 125]	150	20	–	–	–	–	–
CFQWKRAMRKVR [Peptide 123]	156	20	–	–	–	–	–
CFKWKRKMRKVR [Peptide 147]	111	10	–	–	–	–	–
FQWQRNLRKLR [Peptide 135]	103	20	–	–	–	–	–
FWWQRKMRKVR [Peptide 131]	87	5	–	–	–	–	–
SEAEKCFQWQRNMRKVR [Peptide 110]	102	>160	–	–	–	–	–
QPEATKCFPWQRNMRKVR [Peptide 118]	113	>160	–	–	–	–	–
FQWQPRIRKVR [Peptide 138]	172	>160	–	–	–	–	–
RWCFLWRRLMRKHRRL [Peptide 240]	–	–	78.3	59.9	–	12.5	25

— patent US20140031296A1, “NEW SYNTHETIC PEPTIDES AND THEIR USE” (PERGAMUM AB, priority 2011, published 2014)
